This is an account of results in patent US20130172360A1, “DERIVATIVES OF AZAINDAZOLE OR DIAZAINDAZOLE TYPE AS MEDICAMENT” (PIERRE FABRE MEDICAMENT, priority 2011, published 2013).

Series [1] has as its target T1, ALK (Homo sapiens, UniProt Q9UM73). As to the kind of experiment: Test for measuring inhibition of ALK kinase (GST-PLCγ1 substrate, anti-phosphotyrosine ELISA, luminescence). It counts as biochemical. To be noted: 250 μM ATP, 30 minutes at 30° C.; read-out: Enzymatic inhibition of ALK (IC50). On the procedure:
Test for Measuring Inhibition of ALK Kinase:
A ViewPlate microplate (Packard) is incubated with 0.1 mg/ml GST-PLCγ1 substrate (purified recombinant form) in phosphate buffer (PBS, pH 7.4) (100 μl/well) for one hour under stirring. The plate is then saturated with blocking solution comprising 5% bovine serum albumin (BSA) (Sigma) in PBS buffer, pH 7.4.
After having added a compound according to the invention to the desired final concentration (typical range between 30 μM and 10 nM), the reaction is carried out by adding 180 ng/ml ALK to a reaction buffer comprised of 13 mM Tris, pH 7.5 (Sigma); 6.5 mM MgCl2 (Merck); 0.65 mM dithiothreitol (DTT) (Acros); 39 mM sodium ([…] (TCI); 0.65 mM sodium orthovanadate (Sigma); and 250 μM ATP (Sigma). Incubation is carried out for 30 minutes at 30° C. under stirring.
After three washings under stirring in 0.1% PBS/Tween-20 buffer (Sigma), an anti-phosphotyrosine antibody, coupled with HRP (UBI) diluted to 1/1000 in 5 mg/ml PBS/BSA buffer, is incubated for one hour with stirring. After three new washings in 0.1% PBS/Tween-20, the wells are incubated for two minutes with […] of SuperSignal ELISA mixture (Pierce).
The signal is read in luminescence mode using a luminometer (SpectraMax M5e, Molecular Devices).
IC50s are determined by nonlinear regression on the basis of a sigmoidal dose/response relationship model, wherein the Hill coefficient is left variable, carried out on the GraphPad software package according to the algorithm provided.

For another series, the target named is T2, Abl (Homo sapiens, UniProt P00519).
T2 construct: purchased Millipore
As to the kind of experiment: Inhibition of a panel of kinases (Millipore): Abl. It counts as biochemical. To be noted: Millipore kinase panel; read-out: Enzyme inhibition (IC50, nM) Abl. The source says: (§1) Test for Measuring Inhibition of a Panel of Kinases:
(§2) These kinases are produced by Millipore and are screened according to the manufacturer's protocols.

For series [2], the system named is Karpas 299 cells (human anaplastic large-cell lymphoma). Kind of series: Test for measuring inhibition of cell (Karpas 299) proliferation (ATPlite). It counts as cell-based. To be noted: 72 hours. On the procedure:
Test for Measuring Inhibition of Cell (Karpas 299) Proliferation:
The antiproliferative activities of the compounds according to the invention were measured by the ATPlite technique (Perkin Elmer).
Nonadherent human anaplastic large-cell lymphoma cells (Karpas 299) are inoculated in 96-well plates (300,000 cells/ml) at day 1, at a concentration compatible with logarithmic growth for the 72 hours required for the evaluation of the compounds. All of the cells are treated at day 1 and then placed in an incubator at 37° C. under an atmosphere of 5% CO2. Cell viability is evaluated at day 4 by assaying released ATP, which is characteristic of viable cells. IC50s are determined by nonlinear regression on the basis of a sigmoidal dose/response relationship model, wherein the Hill coefficient is left variable, carried out on the GraphPad software package according to the algorithm provided.

In series [3] the target is T1, ALK. Kind of series: Inhibition of a panel of kinases (Millipore): ALK. The settings on record: Millipore kinase panel; read-out: Enzyme inhibition (IC50, nM) ALK. It counts as biochemical.
Source text: as §1, §2

Series [4] concerns human anaplastic large-cell lymphoma (ALCL) tumor model. As to the kind of experiment: In vivo antitumor activity, ALCL tumors grafted subcutaneously in mice, oral daily dosing. The settings on record: mice with subcutaneous ALCL tumors, daily schedule; for adverse effects: animals weighed several times per week; for inhibition of ALCL tumor growth: corresponds to complete regression of the tumors. As to the method: Pharmacological Activity In Vivo
The compounds were administered orally at various doses on a daily schedule to mice with ALCL tumors grafted subcutaneously. Tumor size was measured regularly during the study and the animals were weighed several times per week in order to identify any adverse effects. A compound is declared active if it induces inhibition of ALCL tumor growth by at least 58%.

In the next series the target is T3, c-Src (Homo sapiens, UniProt P12931).
T3 construct: purchased Millipore
Kind of series: Inhibition of a panel of kinases (Millipore): c-Src. Format: biochemical. The settings on record: Millipore kinase panel; read-out: Enzyme inhibition (IC50, nM) c-Src.
Source text: as §1, §2

T1 sequence (Q9UM73 19-1620): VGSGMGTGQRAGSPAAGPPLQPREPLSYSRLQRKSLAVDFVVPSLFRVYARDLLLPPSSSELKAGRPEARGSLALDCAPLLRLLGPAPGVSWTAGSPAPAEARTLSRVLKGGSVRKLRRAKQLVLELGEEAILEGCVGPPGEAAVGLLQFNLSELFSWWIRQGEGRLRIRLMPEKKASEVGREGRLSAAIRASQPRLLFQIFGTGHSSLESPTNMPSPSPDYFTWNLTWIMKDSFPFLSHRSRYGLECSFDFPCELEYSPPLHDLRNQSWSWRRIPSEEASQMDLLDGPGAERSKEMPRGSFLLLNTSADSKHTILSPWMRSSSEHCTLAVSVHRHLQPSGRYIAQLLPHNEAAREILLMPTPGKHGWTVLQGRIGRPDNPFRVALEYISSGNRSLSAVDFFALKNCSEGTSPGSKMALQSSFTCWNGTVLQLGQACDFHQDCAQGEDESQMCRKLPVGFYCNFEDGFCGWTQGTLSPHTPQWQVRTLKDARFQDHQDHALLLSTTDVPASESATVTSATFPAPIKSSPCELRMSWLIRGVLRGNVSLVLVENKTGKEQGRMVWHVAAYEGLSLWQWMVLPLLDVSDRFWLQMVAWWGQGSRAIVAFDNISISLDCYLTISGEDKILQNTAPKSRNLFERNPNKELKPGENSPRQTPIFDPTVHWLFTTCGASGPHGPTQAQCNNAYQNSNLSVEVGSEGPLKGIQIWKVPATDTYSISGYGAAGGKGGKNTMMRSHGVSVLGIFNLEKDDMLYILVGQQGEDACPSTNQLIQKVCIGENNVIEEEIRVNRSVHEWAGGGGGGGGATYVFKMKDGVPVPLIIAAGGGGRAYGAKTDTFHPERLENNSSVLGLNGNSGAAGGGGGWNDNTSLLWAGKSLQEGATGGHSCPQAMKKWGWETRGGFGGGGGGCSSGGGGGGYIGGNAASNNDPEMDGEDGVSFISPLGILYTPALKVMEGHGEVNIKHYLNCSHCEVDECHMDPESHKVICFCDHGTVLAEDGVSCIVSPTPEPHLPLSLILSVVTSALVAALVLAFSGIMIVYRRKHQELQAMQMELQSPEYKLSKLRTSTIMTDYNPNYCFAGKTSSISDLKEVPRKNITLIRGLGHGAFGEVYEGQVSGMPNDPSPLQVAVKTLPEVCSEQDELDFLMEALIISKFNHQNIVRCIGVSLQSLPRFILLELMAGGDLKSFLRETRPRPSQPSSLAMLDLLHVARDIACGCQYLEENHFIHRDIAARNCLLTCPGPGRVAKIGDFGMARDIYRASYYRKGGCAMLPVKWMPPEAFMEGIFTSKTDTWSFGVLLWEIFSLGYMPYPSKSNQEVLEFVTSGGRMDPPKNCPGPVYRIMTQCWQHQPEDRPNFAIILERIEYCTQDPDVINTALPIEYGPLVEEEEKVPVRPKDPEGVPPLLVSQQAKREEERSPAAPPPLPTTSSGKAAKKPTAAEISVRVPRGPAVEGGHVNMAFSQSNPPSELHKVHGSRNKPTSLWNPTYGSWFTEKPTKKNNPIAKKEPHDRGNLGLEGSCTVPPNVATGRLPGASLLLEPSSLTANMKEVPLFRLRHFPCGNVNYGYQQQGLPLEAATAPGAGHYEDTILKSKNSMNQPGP
T3 sequence (P12931 whole entry): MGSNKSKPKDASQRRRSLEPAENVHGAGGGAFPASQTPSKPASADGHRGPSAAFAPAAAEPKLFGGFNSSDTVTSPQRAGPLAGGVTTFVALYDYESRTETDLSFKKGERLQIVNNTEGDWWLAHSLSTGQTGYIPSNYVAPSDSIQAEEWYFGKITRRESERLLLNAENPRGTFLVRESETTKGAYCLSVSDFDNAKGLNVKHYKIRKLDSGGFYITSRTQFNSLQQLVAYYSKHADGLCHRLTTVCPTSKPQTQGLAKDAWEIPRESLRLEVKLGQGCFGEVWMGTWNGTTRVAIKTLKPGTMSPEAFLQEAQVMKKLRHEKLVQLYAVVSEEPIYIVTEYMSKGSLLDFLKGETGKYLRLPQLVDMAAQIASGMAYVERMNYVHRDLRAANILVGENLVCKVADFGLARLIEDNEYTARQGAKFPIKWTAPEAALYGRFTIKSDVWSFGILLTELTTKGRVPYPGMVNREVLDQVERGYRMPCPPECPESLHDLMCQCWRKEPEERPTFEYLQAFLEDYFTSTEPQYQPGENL
T2 sequence (P00519 whole entry, species assumed): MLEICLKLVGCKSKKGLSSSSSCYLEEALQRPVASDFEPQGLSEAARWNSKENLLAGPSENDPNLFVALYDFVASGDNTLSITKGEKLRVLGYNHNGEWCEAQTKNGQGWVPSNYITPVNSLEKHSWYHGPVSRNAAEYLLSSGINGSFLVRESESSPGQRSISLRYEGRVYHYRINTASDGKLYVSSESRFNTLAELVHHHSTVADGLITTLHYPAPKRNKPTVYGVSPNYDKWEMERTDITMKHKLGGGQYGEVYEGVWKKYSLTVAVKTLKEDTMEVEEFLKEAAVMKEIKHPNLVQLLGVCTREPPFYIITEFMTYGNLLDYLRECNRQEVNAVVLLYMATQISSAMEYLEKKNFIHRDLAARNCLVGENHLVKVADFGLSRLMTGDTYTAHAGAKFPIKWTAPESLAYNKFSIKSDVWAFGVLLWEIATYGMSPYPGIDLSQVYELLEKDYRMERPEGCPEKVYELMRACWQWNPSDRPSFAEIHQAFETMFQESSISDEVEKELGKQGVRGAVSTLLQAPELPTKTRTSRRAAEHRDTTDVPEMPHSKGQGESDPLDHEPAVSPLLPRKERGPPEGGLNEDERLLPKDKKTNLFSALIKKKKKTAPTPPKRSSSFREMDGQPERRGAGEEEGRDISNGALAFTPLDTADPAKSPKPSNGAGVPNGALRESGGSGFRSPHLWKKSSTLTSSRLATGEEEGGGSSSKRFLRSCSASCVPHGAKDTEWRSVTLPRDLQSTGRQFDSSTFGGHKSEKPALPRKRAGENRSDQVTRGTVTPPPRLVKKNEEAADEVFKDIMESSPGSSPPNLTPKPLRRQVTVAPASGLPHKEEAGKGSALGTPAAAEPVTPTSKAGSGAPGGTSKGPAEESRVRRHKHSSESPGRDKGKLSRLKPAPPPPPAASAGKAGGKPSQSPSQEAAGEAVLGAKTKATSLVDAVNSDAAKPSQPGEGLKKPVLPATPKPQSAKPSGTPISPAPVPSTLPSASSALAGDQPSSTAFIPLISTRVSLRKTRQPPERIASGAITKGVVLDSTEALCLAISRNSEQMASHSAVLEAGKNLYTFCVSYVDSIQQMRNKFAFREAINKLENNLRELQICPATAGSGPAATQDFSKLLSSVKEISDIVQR

As for `CN1CCN(c2ccc(CNc3n[nH]c4ncc(Sc5cc(F)cc(F)c5)cc34)cc2)CC1` [Example 28, 5-(3,5-difluorophenylthio)-N-(4-(4-methylpiperazin-1-yl)benzyl)-1H-pyrazolo[3,4-b]pyridin-3-amine], at ALK [1], the IC50 came out at 36 nM.
Take `CN1CCN(c2ccc(C(=O)Nc3n[nH]c4ncc(Sc5cc(F)cc(F)c5)cc34)c(NC3CCOCC3)c2)CC1` [Example 30, N-(5-(3,5-difluorophenylthio)-1-H-pyrazolo[3,4-b]pyridine-3-yl)-4-(4-methylpiperazine-1-yl)-2-(tetrahydro-2H-pyran-4-ylamino)benzamide]: the half-maximal inhibitory concentration (IC50) at Abl turned out to be 18 nM; in series [2], 160 nM; on ALK [3] it was 7 nM; at c-Src it was 4 nM; at ALK [1], 1 nM. In addition, the adverse effects result in series [4] is reported as “no adverse effects”. In addition, the “inhibition of ALCL tumor growth” value in series [4] came to 100%.
Take `CN1CCN(c2ccc(C(=O)Nc3n[nH]c4ncc(CCc5cc(F)cc(F)c5)cc34)c(NC3CCOCC3)c2)CC1` [Example 31, N-(5-(3,5-difluorophenethyl)-1H-pyrazolo[3,4-b]pyridin-3-yl)-4-(4-methylpiperazin-1-yl)-2-(tetrahydro-2H-pyran-4-ylamino)benzamide]: the IC50 in series [2] worked out at 830 nM; at ALK [1], 17 nM.
On to `COc1nc2[nH]nc(NC(=O)c3ccc(N4CCN(C)CC4)cc3NC3CCOCC3)c2cc1Sc1cc(F)cc(F)c1` [Example 30-5, N-(5-(3,5-difluorophenylthio)-6-methoxy-1H-pyrazolo[3,4-b]pyridin-3-yl)-4-(4-methylpiperazin-1-yl)-2-(tetrahydro-2H-pyran-4-ylamino)benzamide], for which the values for the IC50 (in series [2]; on ALK [1]) were 2600 nM and 66 nM, respectively.
For `CN1CCN(c2ccc(C(=O)Nc3n[nH]c4ncc(Sc5ccccc5C(N)=O)cc34)c(NC3CCOCC3)c2)CC1` [Example 30-1, N-(5-(2-carbamoylphenylthio)-1H-pyrazolo[3,4-b]pyridin-3-yl)-4-(4-methylpiperazin-1-yl)-2-(tetrahydro-2H-pyran-4-ylamino)benzamide], in that order: 2200 nM and 20 nM.
For `CN1CCN(c2ccc(C(=O)Nc3n[nH]c4ncc(Cc5cc(F)cc(F)c5)cc34)c(NC3CCOCC3)c2)CC1` [Example 30-9, N-(5-(3,5-difluorobenzyl)-1H-pyrazolo[3,4-b]pyridin-3-yl)-4-(4-methylpiperazin-1-yl)-2-(tetrahydro-2H-pyran-4-ylamino)benzamide], the IC50 was determined as 38 nM at Abl, 15 nM at ALK [3], 9 nM on c-Src and 1 nM on ALK [1]. In addition, in series [4], the adverse effects entry is “no adverse effects”. Further, the “inhibition of ALCL tumor growth” value in series [4] is listed as 100%.
